Experimental data taken from the C3SDB collision cross section collection.
Several values for one entry are separate records, joined by “and”; a condition that tells them apart may be missing. Equal entries are not always repeated.

Settings: instrument: DT, single field, calibrated with Agilent tune mix (Agilent)

| SMILES | collision cross section (N2) ([M+H]+) [Å²] | collision cross section (N2) ([M-H]-) | also measured |
| --- | --- | --- | --- |
| NC(=O)c1ncn([C@@H]2O[C@H](COP(=O)(O)O)[C@@H](O)[C@H]2O)c1N [5'-Phosphoribosyl-5-amino-4-imidazolecarboxamide] | 171.6 | 167.62 Å² |  |
| CC(O)CCCC(=O)O (configuration not stated) [5-Hydroxyhexanoic acid] |  | 125.8 Å² |  |
| NC(Cc1c[nH]c2ccc(O)cc12)C(=O)O (configuration not stated) [5-Hydroxytryptophan] |  | 149.2 Å² | collision cross section (N2) ([M+Na]+): 152.2 Å² |
| COc1ccc2[nH]cc(CCN)c2c1 [5-Methoxytryptamine] |  | 141.18 Å² |  |
| O=P(O)(O)OC[C@H]1O[C@H](OP(=O)(O)OP(=O)(O)O)[C@H](O)[C@@H]1O [5-Phospho-alpha-D-ribose 1-diphosphate] |  |  | collision cross section (N2) ([M+Na-2H]-): 161.1 Å² |
| C[C@]12CCC(=O)C[C@@H]1CC[C@@H]1[C@@H]2CC[C@]2(C)C(=O)CC[C@@H]12 [5alpha-Androstane-3,17-dione] | 180.6 | 174.32 Å² |  |
| Nc1nc(=O)c2c([nH]1)NCC(CNc1ccc(C(=O)N[C@@H](CCC(=O)O)C(=O)O)cc1)=N2 [7,8-Dihydrofolate] | 193.6 | 196.42 Å² |  |
| Cn1c[n+]([C@@H]2O[C@H](CO)[C@@H](O)[C@H]2O)c2[nH]c(N)nc(=O)c21 [7-Methylguanosine] |  |  | collision cross section (N2) ([M]+): 166.5 Å² |
| Cn1cnc2[nH]c(=O)[nH]c(=O)c21 [7-Methylxanthine] | 130.8 | 128.75 Å² |  |
| O=C(O)CCCCCCCCCCCCCCCO [16-Hydroxypalmitic acid] |  | 168.99 Å² | collision cross section (N2) ([M+Na]+): 178.2 Å² |
| CC(=O)[C@@]1(O)CC[C@H]2[C@@H]3CCC4=CC(=O)CC[C@]4(C)[C@H]3CC[C@@]21C [17alpha-Hydroxyprogesterone] | 183.4 | 183.75 Å² |  |
| O=C(O)CC[C@H](O)C(=O)O [(S)-2-Hydroxyglutarate] |  | 118.99 Å² and 119.14 Å² |  |
| Nc1ncnc2c1ncn2[C@@H]1O[C@H](COP(=O)(O)OP(=O)(O)O[C@H]2O[C@H](CO)[C@@H](O)[C@H](O)[C@H]2O)[C@@H](O)[C@H]1O [ADP-glucose] | 214.5 |  |  |
| Nc1ncnc2c1ncn2[C@@H]1O[C@H](COP(=O)(O)O)[C@@H](OP(=O)(O)O)[C@H]1O [Adenosine 3',5'-diphosphate] | 182.5 |  | collision cross section (N2) ([M-H2O-H]-): 179.49 Å² |
| Nc1ncnc2c1ncn2[C@@H]1O[C@H](CO)[C@@H](OP(=O)(O)O)[C@H]1O [Adenosine 3'-monophosphate] |  | 171.18 Å² |  |
| O=C(O)CC(Nc1ncnc2c1ncn2[C@@H]1O[C@H](COP(=O)(O)O)[C@@H](O)[C@H]1O)C(=O)O (some centres not stated) [Adenylsuccinic acid] |  | 183.19 Å² | collision cross section (N2) ([M+Na]+): 195.6 Å² |
| CC1=C(/C=C/C(C)=C/C=C/C(C)=C/C(=O)O)C(C)(C)CCC1 [All-trans-retinoic acid] |  | 203.42 Å² |  |
| NC(=O)NC(NC(N)=O)C(=O)O [Allantoic acid] |  |  | collision cross section (N2) ([M+Na]+): 143 Å² |
| NC(CSCC[C@H](N)C(=O)O)C(=O)O (some centres not stated) [Allocystathionine] | 146.7 |  |  |
| NC(=O)CC[C@H](NC(=O)Cc1ccccc1)C(=O)O [Alpha-N-Phenylacetyl-L-glutamine] | 158.7 | 162.82 Å² |  |

| SMILES | collision cross section (N2) ([M+H]+) [Å²] | collision cross section (N2) ([M-H]-) | also measured |
| --- | --- | --- | --- |
| Nc1ccc(C(=O)NCC(=O)O)cc1 [Aminohippuric acid] |  | 147.55 Å² | collision cross section (N2) ([M+Na]+): 153.7 Å² |
| OC[C@H]1O[C@@H](Oc2ccc(O)cc2)[C@H](O)[C@@H](O)[C@@H]1O [Arbutin] |  |  | collision cross section (N2) ([M+Na-2H]-): 159.52 Å²; collision cross section (N2) ([M+Na]+): 166.6 Å² |
| NC(=NCCC[C@H](N)C(=O)O)N[C@@H](CC(=O)O)C(=O)O [Argininosuccinic acid] | 163.9 |  | collision cross section (N2) ([M+Na-2H]-): 159.57 Å² |
| CCCCCCCCCCCCCCCCCC(=O)OC[C@H](O)[C@H]1OC(=O)C(O)=C1O [Ascorbyl stearate] |  | 207.62 Å² |  |
| O=C(O)CCCCCCCC(=O)O [Azelaic acid] |  | 137.38 Å² |  |
| N[C@@H](CCCCNC(=O)CCCC[C@@H]1SC[C@@H]2NC(=O)N[C@@H]21)C(=O)O [Biocytin] | 186.8 |  | collision cross section (N2) ([M+Na-2H]-): 189.78 Å² |
| C[C@@H](O)[C@@H](O)c1cnc2[nH]c(N)nc(=O)c2n1 [Biopterin] | 153.5 | 148.31 Å² |  |
| CCCCCC(=O)O [Caproic acid] |  | 128.54 Å² |  |
| CCCCCCCC(=O)O [Caprylic acid] |  | 139.46 Å² |  |
| C[C@H](CCC(=O)O)[C@H]1CC[C@H]2[C@@H]3[C@H](O)C[C@@H]4C[C@H](O)CC[C@]4(C)[C@H]3CC[C@]12C [Chenodeoxycholate] |  | 201.51 Å² |  |
| NCCP(=O)(O)O [Ciliatine] | 128.7 | 118.25 Å² |  |
| O=C(O)CC(O)(CC(=O)O)C(=O)O [Citrate] |  |  | collision cross section (N2) ([M+Na]+): 142.4 Å² |
| COc1cc(/C=C/CO)ccc1O [Coniferol] |  | 138.18 Å² | collision cross section (N2) ([M+H-H2O]+): 128.6 Å² |
| Nc1ccn(C2O[C@H](CO)[C@H]3OP(=O)(O)O[C@@H]23)c(=O)n1 (some centres not stated) [Cytidine 2',3'-cyclic phosphate] | 162.3 |  | collision cross section (N2) ([M+Na-2H]-): 161.98 Å² |
| CC(=O)N[C@H]1[C@H]([C@H](O)[C@H](O)CO)O[C@](OP(=O)(O)OC[C@H]2O[C@@H](n3ccc(N)nc3=O)[C@H](O)[C@@H]2O)(C(=O)O)C[C@@H]1O [Cytidine monophosphate N-acetylneuraminic acid] |  | 215.5 Å² | collision cross section (N2) ([M+Na]+): 220.7 Å² |
| OC[C@H]1OC(O)[C@H](O)[C@@H](O)[C@H]1O (stereo partly drawn) [D-(+)-Galactose] |  |  | collision cross section (N2) ([M+Na]+): 142.1 Å² |
| O=C(O)[C@@H](O)[C@@H](O)[C@H](O)[C@@H](O)C(=O)O [D-Glucarate] |  | 130.5 Å² and 130.92 Å² |  |
| Nc1nc(=O)c2nc([C@H](O)[C@H](O)CO)cnc2[nH]1 [D-Neopterin] | 157.1 | 150.31 Å² |  |
| NCCC[C@@H](N)C(=O)O [D-Ornithine] |  | 126.74 Å² |  |
| O=C(CO)[C@H](O)[C@H](O)COP(=O)(O)O [D-Ribulose 5-phosphate] |  |  | collision cross section (N2) ([M+Na]+): 148.8 Å² |

| SMILES | collision cross section (N2) ([M+H]+) [Å²] | collision cross section (N2) ([M-H]-) | also measured |
| --- | --- | --- | --- |
| OCC1(O)OC[C@@H](O)[C@H](O)[C@@H]1O (stereo partly drawn) [D-Tagatose] |  | 129.77 Å² | collision cross section (N2) ([M+Na]+): 139 Å² |
| N[C@H]1C(O)O[C@H](COP(=O)(O)O)[C@@H](O)[C@@H]1O (stereo partly drawn) [D-glucosamine 6-phosphate] |  |  | collision cross section (N2) ([M+Na]+): 156.6 Å² |
| C[C@H](CCC(=O)O)[C@H]1CC[C@H]2[C@@H]3CC[C@@H]4C[C@H](O)CC[C@]4(C)[C@H]3C[C@H](O)[C@]12C [Deoxycholic acid] |  | 200.7 Å² |  |
| Nc1ccn([C@H]2C[C@H](O)[C@@H](COP(=O)(O)OP(=O)(O)OP(=O)(O)O)O2)c(=O)n1 [Deoxycytidine 5'-triphosphate] |  | 176.92 Å² |  |
| Nc1nc(=O)c2ncn([C@H]3C[C@H](O)[C@@H](COP(=O)(O)OP(=O)(O)OP(=O)(O)O)O3)c2[nH]1 [Deoxyguanosine triphosphate] |  | 189.26 Å² |  |
| Cc1cn([C@H]2C[C@H](O)[C@@H](COP(=O)(O)O)O2)c(=O)[nH]c1=O [Deoxythymidine 5'-phosphate] |  |  | collision cross section (N2) ([M+Na]+): 173.1 Å² |
| CC(C)=CCC[C@@H](C)[C@H]1CC[C@H]2[C@@H]3CC=C4C[C@@H](O)CC[C@]4(C)[C@H]3CC[C@]12C [Desmosterol] |  | 210.05 Å² | collision cross section (N2) ([M+H-H2O]+): 199.4 Å² |
| Cc1cc2nc[nH]c2cc1C [Dimethylbenzimidazole] | 129.9 | 127.73 Å² |  |
| CCCCCCCC/C=C\CCCCCCCCCCCC(=O)O [Erucic acid] |  | 188.5 Å² |  |
| Cc1cc2nc3c(=O)[nH]c(=O)nc-3n(C[C@H](O)[C@H](O)[C@H](O)COP(=O)(O)OP(=O)(O)OC[C@H]3O[C@@H](n4cnc5c(N)ncnc54)[C@H](O)[C@@H]3O)c2cc1C [Flavin adenine dinucleotide] | 247.3 |  |  |
| Nc1nc(=O)c2c([nH]1)NCC(CNc1ccc(C(=O)N[C@@H](CCC(=O)O)C(=O)O)cc1)N2C=O (some centres not stated) [Folinic acid] | 196.9 | 196.26 Å² |  |
| O=CNc1ccccc1C(=O)O [Formylanthranilic acid] |  | 127.28 Å² | collision cross section (N2) ([M+H-H2O]+): 125.7 Å² |
| N[C@@H](CCC(=O)N[C@@H](CS)C(=O)O)C(=O)O [Gamma-Glutamylcysteine] | 157.7 |  |  |
| O=C(O)c1cc(O)ccc1O [Gentisic acid] |  | 122.67 Å² |  |
| CC(C)=CCC/C(C)=C/COP(=O)(O)OP(=O)(O)O [Geranyl diphosphate] |  |  | collision cross section (N2) ([M-H2O-H]-): 161.5 Å² |
| O=C(O)CCCC(=O)O [Glutaric acid] |  | 120.08 Å² |  |
| CC(C)(COP(=O)(O)OP(=O)(O)OC[C@H]1O[C@@H](n2cnc3c(N)ncnc32)[C@H](O)[C@@H]1OP(=O)(O)O)[C@@H](O)C(=O)NCCC(=O)NCCSC(=O)CCCC(=O)O [Glutaryl-CoA] | 260.5 | 252.39 Å² |  |
| CC(C)C[C@H](NC(=O)CN)C(=O)O [Glycyl-L-leucine] | 149.5 | 142.07 Å² |  |
| NCC(=O)N1CCCC1C(=O)O (configuration not stated) [Glycylproline] | 136.4 | 134.59 Å² |  |
